Patent US7781580B2, “Stilbene derivatives as new cancer therapeutic agents” (Virginia Commonwealth University, priority 2007, dated 2010)
Where two headings read alike, the source gives them in different places.

Experiments:
[1] = water solubility of stilbene and carbamate prodrug (salts and free base); assay type: physicochemical; details: for solubility: water, 20 °C, 20° C.
Description: Stilbene prodrugs may be made by attaching to a stilbene derivative of interest (e.g. a stilbene derivative with anti-tumor activity), chemical groups (or moieties) that render the stilbene derivative more water soluble than before such a modification is carried out. By “water soluble” we mean that more than 20 mg compound can be fully dissolved in 1 mL of water. Further, the chemical groups that are attached to the stilbene derivative to make the derivative water soluble are labile (i.e. removable) in that, upon exposure to in vitro or in vivo hydrolyzing conditions, the chemical groups are removed or dissociated from the stilbene derivative by hydrolysis, releasing the active, anti-tumor form of the stilbene derivative. The chemical groups which are attached may themselves be biologically active, and are, at least, not biologically injurious to cells or mammals. […] As illustrated, morfolinoethyl-urea, morfolinoethyl-carbamate and triethylene glycol (TEG) groups (5a, 5b, 5c, respectively) may be used for this purpose.

[2] = tested on: tubulin (colchicine site); assay: [3H]-colchicine competition for binding tubulin; details: 20 min, 37° C.
Description: FIG. 3a-d. […] (a) Effect of stilbene 4a. Pure tubulin was incubated with various concentrations of stilbene 4a, 10 μM nocodazole, and 10 μM paclitaxel in the polymerization buffer. The OD at 340 nm was monitored every minute by SpectraMAX 250 and plotted against time. (b) Effect of stilbene 4c. (c) Comparison of same concentrations of stilbenes 4a, 4a trans, 4c and 4c trans with control. […] The radioactivity of the tubulin was counted. […] All experiments were done in triplicates.
Tubulin retained in the Microcon was washed three times with PBS. The radioactivity of the final concentrated tubulin was determined by a scintillation counter.

[3] = tested on: SNU423 hepatocellular carcinoma cells; assay: Alamar Blue cell growth inhibition, SNU423; assay type: cell-based
Method in brief: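 Cells at 50% confluence were treated for 48 h in triplicate with 0-10 μM compound or 0.1% DMSO vehicle. Alamar Blue was added at 1/10 volume for 2 h, and absorbance at 570 and 600 nm gave % growth via the manufacturer's extinction-coefficient formula relative to vehicle controls.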

[4] = tested on: SKOV3 ovarian cancer cells; assay: Alamar Blue cell growth inhibition, SKOV3; assay type: cell-based
Method in brief: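 SKOV3 cells at 50% confluence were treated 48 h with compounds, against 0.1% DMSO vehicle controls. Growth was read by Alamar Blue absorbance at 570 and 600 nm, with % growth inhibition from the manufacturer's extinction-coefficient formula. Each concentration was run in triplicate.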

[5] = tested on: MDA-MB231 cells; assay: immunofluorescent staining of tubulin, MDA-MB231; assay type: cell-based; details: CA4 10 nM, stilbene 4a 100 nM, vincristine 100 nM, 5b 3 μM; 16 hours
Source text: Nuclei were stained with 4′,6-diamidino-2-phenylindole (DAPI). Control cells show the reticular pattern of the microtubule network.

[6] = tested on: Chk1−/− cells; assay: cell cycle analysis, Chk1-/- MDA-MB231 derivative; assay type: cell-based
Description: Due to the structural similarity between stilbene 4a and CA4, we investigated the difference in the biological activity of these two compounds in MDA-MB231 breast cancer cells and their Chk2−/− derivatives. […] MDA-MB231 cells were treated with 10 nM stilbene 4a or 1 nM CA4. […] However, a difference in cell cycle change was observed following treatment with 30 nM of stilbene 4a versus 3 nM of CA4. […] This was also the case for cells treated with 100 nM stilbene 4a. A significant subG1/0 population was also noted. […] One possible effect could be a DNA damage response, which is a common mechanism of multiple chemotherapeutic agents but not one of pure microtubule-interfering agents such a paclitaxel or vincristine. […] We then obtained conditional Chk1−/− and Chk2−/− cells, which were derived from the same MDA-MB231 cells for the same flow cytometry analysis. […] In contrast, Chk2−/− cells were more sensitive to stilbene 4a. […] This mechanism is not obvious in higher drug concentrations at which the G2 arrest from microtubule interference is dominant. Therefore, in addition to their microtubule interfering effect, stilbenes have another mechanism to induce cell death. Thus, the use of a Chk2 inhibitor in combination with stilbenes may be a viable approach to enhancing the beneficial therapeutic effects of stilbenes.

[7] = acute toxicity in dose escalating study; assay type: in vivo, mice; details: 100 mg/kg intraperitoneally
Description: Acute toxicity in dose escalating study: We investigated the efficacy of stilbene 4a in vivo using mouse xenograft model. First we determined the maximal tolerated dose of stilbene 4a since it has a higher potency in vitro. […] Subsequently mice fully recovered 30 min after injection.

Structure (SMILES): COc1cc(/C=C\c2ccc(OC)c(N)c2)cc(OC)c1 [4a, (Z)-5-[2-(3,5-Dimethoxy-phenyl)-vinyl]-2-methoxy-phenylamine]
- water solubility (in words) [1]: limited solubility
- solubility ([1]; HCl salt, read-out: water solubility, x HCl): 6000 µg/mL
- solubility ([1]; free base, read-out: water solubility, Free base): < 1000 µg/mL
- solubility ([1]; oxalate salt, read-out: water solubility, x (COOH)2): < 1000 µg/mL
- competition with [3H]-colchicine for tubulin [2]: dose-dependent suppression of tubulin-colchicine interaction
- relative potency ([3]; SNU423): much more potent than the trans counterparts
- effective concentration, blocking cell proliferation ([3]; SNU423, 48 hours): 0.03 µM
- IC50 ([4]; Homo sapiens, SK-OV-3): 50 to 100 nM
- effective / active concentration ([4]; SKOV3, 48 hours): 0.1 µM
- microtubule pattern [5]: did not completely disrupt microtubule formation
- sensitivity versus MDA-MB231 [6]: more resistant
- acute toxicity at 100 mg/kg intraperitoneally [7]: no sign of weakness was observed
